Data as given in patent publication US8877707B2, “Inhibitors of HCV NS5A” (Presidio Pharmaceuticals, Inc., priority 2010, dated 2014).
Like-named read-outs stand apart in the source and are kept apart here.

System: HCV genotype 1b replicon in Huh 7 cells
Test: HCV replicon assay (1b_Huh-Luc/Neo-ET cell line, luciferase readout)
Format: cell-based
Details: Hepatitis C virus, read-out: Inhibition of HCV genotype 1b
Outline: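 Replicon level was read as luciferase signal after 72 h compound exposure, triplicate wells, starting the day after cells were plated. Cell line: 1b_Huh-Luc/Neo-ET. Values normalised to control as percent, and EC50 fitted with a variable-slope sigmoid; determinations repeated.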

[1] = Table 1, genotype 1b replicon, Huh 7 cells, 72 h, luciferase
[2] = Table 2, genotype 1b replicon, Huh 7 cells, 72 h, luciferase

| SMILES | EC50 [1] [nM] | also measured |
| --- | --- | --- |
| COC(=O)N[C@H](C(=O)N1CCC[C@H]1c1nc2ccc3cc(-c4ccc5cc(-c6cnc([C@@H]7CCCN7C(=O)[C@H](NC(=O)OC)c7ccccc7)[nH]6)ccc5n4)ccc3c2[nH]1)C(C)C [compound 298] | < 1 |  |
| COC(=O)N[C@H](C(=O)N1CCC[C@H]1C(=O)NCc1ccc(-c2ccc3cc(-c4cnc([C@@H]5CCCN5C(=O)[C@@H](NC(=O)OC)C(C)C)[nH]4)ccc3c2)cc1)C(C)C [compound 567] |  | EC50 (Huh-7, HCV 1b replicon): 10 to 999 nM |
| COC(=O)N[C@H](C(=O)N1CCC[C@H]1c1nc(-c2ccc3nc(C45CCC(c6cnc([C@@H]7CCCN7C(=O)[C@@H](NC(=O)OC)C(C)C)[nH]6)(CC4)CC5)ccc3c2)c[nH]1)C(C)C [compound 262] | < 1 |  |
| COC(=O)N[C@H](C(=O)N1CCC[C@H]1c1nc(-c2cnc3cc(-c4ccc(-c5cnc([C@@H]6CCCN6C(=O)[C@@H](NC(=O)OC)C6CCOCC6)[nH]5)cc4)ccc3c2)c[nH]1)C(C)C [compound 49] | < 1 |  |
| COC(=O)N[C@H](C(=O)N1CCC[C@H]1C(=O)NCc1ccc(-c2ccc3cc(-c4cnc([C@@H]5CCCN5C(=O)[C@@H](NC(=O)OC)C5CCOCC5)[nH]4)ccc3c2)cc1)C1CCOCC1 [compound 569] |  | EC50 (Huh-7, HCV 1b replicon): < 1 nM |
| COC(=O)N[C@H](C(=O)N1CCC[C@H]1c1ncc(-c2ccc3cc(-c4ccc(-c5cnc([C@@H]6CCCN6C(=O)[C@H](NC(=O)OC)c6ccccc6)[nH]5)cc4F)ncc3c2)[nH]1)C(C)C [compound 152] | < 1 |  |
| COC(=O)N[C@H](C(=O)N1CCC[C@H]1c1ncc(-c2ccc(-c3ccc4cc(-c5cnc([C@@H]6CCCN6C(=O)[C@H](NC(=O)OC(C)(C)C)c6ccccc6)[nH]5)ccc4n3)c(F)c2)[nH]1)C1CCOCC1 [compound 136] | < 1 |  |
| COC(=O)N[C@H](C(=O)N1CCC[C@H]1c1ncc(-c2ccc3nc(-c4ccc5nc([C@@H]6CCCN6C(=O)[C@@H](NC(=O)OC)C6CCOCC6)[nH]c5c4)ccc3c2)[nH]1)C1CCOCC1 [compound 206] | 1 to 9.9 |  |
| COC(=O)N[C@H](C(=O)N1CCC[C@H]1c1nc2ccc(-c3cc4ccc(-c5cnc([C@@H]6CCCN6C(=O)[C@@H](NC(=O)OC)C6CCOCC6)[nH]5)cc4cn3)cc2[nH]1)C(C)C [compound 216] | < 1 |  |
| COC(=O)N[C@H](C(=O)N1CCC[C@H]1c1ncc(-c2ccc3oc(-c4ccc(-c5cnc([C@@H]6CCCN6C(=O)[C@@H](NC(=O)OC)C6CCOCC6)[nH]5)cc4)nc3c2)[nH]1)C(C)C [compound 259] | < 1 |  |
| COC(=O)N[C@@H](C)C(=O)N1CCC[C@H]1c1ncc(-c2ccc3cc(-c4ccc(-c5cnc([C@@H]6CCCN6C(=O)[C@H](NC(=O)OC)c6ccsc6)[nH]5)cc4)ccc3c2)[nH]1 [compound 464] |  | EC50 (Huh-7, HCV 1b replicon): < 1 nM |
| COC(=O)N[C@H](C(=O)N1CCC[C@H]1c1ncc(-c2ccc3cc(-c4ccc(-c5cnc([C@@H]6CCCN6C(=O)[C@H](NC(=O)OC)c6ccccc6)[nH]5)c(F)c4)ncc3c2)[nH]1)C1CCOCC1 [compound 127] | < 1 |  |
| COC(=O)N[C@H](C(=O)N1CCC[C@H]1c1nc(-c2ccc3cc(-c4ccc(-c5cnc([C@@H]6CCCN6C(=O)[C@@H](NC(=O)OC)C(C)C)[nH]5)cn4)ccc3c2)c[nH]1)C(C)C [compound 13] | < 1 |  |
| CC[C@H](C)C(NC(=O)OC)C(=O)N1CCC[C@H]1c1nc2ccc(-c3ccc4cc(-c5cnc([C@@H]6CCCN6C(=O)[C@@H](NC(=O)OC)[C@@H](C)CC)[nH]5)ccc4c3)cc2[nH]1 (stereo partly drawn) [compound 346] |  | EC50 [2]: < 1 nM |
| COC(=O)N[C@H](C(=O)N1CCC[C@H]1c1ncc(-c2ccc(-c3ccc4cc(-c5c[nH]c([C@@H]6CCCN6C(=O)[C@H](NC(=O)NC6CC6)c6ccccc6)n5)ccc4n3)cc2)[nH]1)C(C)C [compound 38] | < 1 |  |
| CC[C@H](NC(=O)OC)C(=O)N1CCC[C@H]1c1ncc(-c2ccc3cc(-c4ccc5nc([C@@H]6COCCN6C(=O)[C@H](CC)NC(=O)OC)[nH]c5c4)ccc3c2)[nH]1 [compound 357] |  | EC50 [2]: < 1 nM |
| COC(=O)N[C@H](C(=O)N1CCC[C@H]1c1ncc(-c2ccc3cc(-c4ccc5nc([C@@H]6CCCN6C(=O)[C@@H](NC(=O)OC)C(C)C)[nH]c5c4)nnc3c2)[nH]1)C(C)C [compound 390] |  | EC50 [2]: < 1 nM |
| COC(=O)N[C@@H](C(=O)N1CCC[C@H]1c1ncc(-c2ccc(-c3ccc4cc(-c5cnc([C@@H]6CCCN6C(=O)[C@H](NC(=O)OC)c6ccsc6)[nH]5)ccc4n3)c(F)c2)[nH]1)c1ccccc1 [compound 485] |  | EC50 (Huh-7, HCV 1b replicon): < 1 nM |
| COC(=O)N[C@H](C(=O)N1CCC[C@H]1c1nc2ccc(-c3ccc4cc(-c5cnc([C@@H]6CCCN6C(=O)[C@@H](NC(=O)OC)C6CCOCC6)[nH]5)cnc4c3)cc2[nH]1)C(C)C [compound 191] | < 1 |  |
| COC(=O)N[C@H](C(=O)N1CCC[C@H]1c1nc(-c2ccc3cc(-c4ccc(-c5cnc([C@@H]6CCCN6C(=O)[C@@H](c6ccccc6)N(C)C)[nH]5)cc4)ccc3c2)c[nH]1)C(C)C [compound 5] | < 1 |  |
| COC(=O)N[C@@H](C)C(=O)N1CCC[C@H]1c1ncc(-c2ccc3cc(-c4ccc5nc([C@@H]6COCCN6C(=O)[C@H](C)NC(=O)OC)[nH]c5c4)ccc3c2)[nH]1 [compound 359] |  | EC50 [2]: < 1 nM |
| COC(=O)N[C@H](C(=O)N1CCC[C@H]1c1nc(-c2cnc3cc(-c4ccc(-c5cnc([C@@H]6CCCN6C(=O)[C@H](NC(=O)OC(C)(C)C)c6ccccc6)[nH]5)cc4)ccc3c2)c[nH]1)C1CCOCC1 [compound 72] | < 1 |  |
| COC(=O)N[C@H](C(=O)N1CCC[C@H]1c1ncc(-c2ccc(-c3ccc4cc(-c5cnc([C@@H]6CSCN6C(=O)[C@@H](NC(=O)OC)C(C)C)[nH]5)ccc4c3)cc2)[nH]1)C(C)C [compound 451] |  | EC50 (Huh-7, HCV 1b replicon): < 1 nM |
| COC(=O)N[C@H](C(=O)N1CCC[C@H]1c1ncc(-c2ccc3cc(-c4ccc(-c5cnc([C@@H]6CCCN6C(=O)[C@H](NC(=O)OC)c6ccccc6)[nH]5)nn4)ccc3c2)[nH]1)[C@@H](C)O [compound 501] |  | EC50 (Huh-7, HCV 1b replicon): < 1 nM |
| COC(=O)N[C@H](C(=O)N1CCC[C@H]1c1nc2ccc(-c3ccc4cc(-c5cnc([C@@H]6CCCN6C(=O)[C@H](NC(=O)OC)c6ccccc6)[nH]5)cnc4c3)cc2[nH]1)C(C)C [compound 195] | < 1 |  |
| COC(=O)N[C@H](C(=O)N1CCC[C@H]1c1ncc(-c2ccc(-c3ccc4cc(-c5cnc([C@@H]6CCCN6C(=O)[C@@H](NC(=O)OC)C6CCCC6)[nH]5)ccc4c3)cc2)[nH]1)C1CCCC1 [compound 172] | < 1 |  |
| COC(=O)N[C@@H](C)C(=O)N1CCC[C@H]1c1nc(-c2ccc3c(c2)CCN(c2c(F)cc(-c4cnc([C@@H]5CCCN5C(=O)[C@H](C)NC(=O)OC)[nH]4)cc2F)C3)c[nH]1 [compound 272] | < 1 |  |
| COC(=O)N[C@H](C(=O)N1CCC[C@H]1c1nc(-c2ccc3cc(-c4ccc(-c5cnc([C@@H]6CCCN6C(=O)[C@H](NC(=O)OC)c6ccccc6)[nH]5)cn4)ccc3c2)c[nH]1)C(C)C [compound 56] | < 1 |  |
| O=C(N[C@@H](C(=O)N1CCCC[C@H]1c1ncc(-c2ccc(-c3ccc4cc(-c5cnc([C@@H]6CCCN6C(=O)[C@H](NC(=O)OC6CCOCC6)c6ccccc6)[nH]5)ccc4n3)cc2)[nH]1)c1ccccc1)OC1CCOCC1 [compound 458] |  | EC50 (Huh-7, HCV 1b replicon): < 1 nM |
| COC(=O)N[C@H](C(=O)N1CCC[C@H]1c1nc(-c2ccc3nc(-c4ccc(-c5cnc([C@@H]6CCCN6C(=O)[C@H](NC(=O)OC)c6ccccc6)[nH]5)cc4)ccc3c2)c[nH]1)C(C)C [compound 26] | < 1 |  |
